This is an account of results in patent US10490837B2, “Bioreactor comprising immobilized enzyme, method for improving activity of immobilized enzyme, and biofuel cell” (TOYOTA JIDOSHA KABUSHIKI KAISHA, priority 2012, dated 2019).

In test [1] the test system is Glucose dehydrogenase (immobilized enzyme). Conditions: substrate glucose, NADP; 1M additive/buffer pH 7.0; 25° C. for 30 minutes.
Description: (§1) The solution was stirred at 25° C. for 30 minutes to allow the enzyme to react with the substrate. Then, WST1 and mPMS were added for color development. Absorbance was measured with a spectrophotometer.
Test [2] concerns Formate dehydrogenase (immobilized enzyme). Kind of test: Effects of heterocyclic compounds on activity of immobilized formate dehydrogenase (WST1/mPMS, absorbance), Examples 4-8. To be noted: for enzyme activity of immobilized enzyme in the presence of the heterocyclic compound (in words): immobilized formate dehydrogenase, Examples 4-8. A general note: Tetrazolium assays rely on reduction of a dye to a coloured formazan, in cell work by metabolically active cells.
Description: A support was applied a fibrous base material cut in pieces 1 cm^2 in area, followed by drying. Each piece of fibrous base material was allowed to absorb a liquid obtained by mixing 2.5% glutaraldehyde, 20% poly-L-lysine, 10 mM Tris-HCl (pH 8.0), and formate dehydrogenase, followed by drying. Thus, immobilized enzymes were prepared.
The solution was stirred at 25° C. for 30 minutes to induce a reaction. Then, WST1 and mPMS were added for color development. Absorbance was measured with a spectrophotometer (Infinite M200 manufactured by TECAN).

Test [3] shares this test system. Conditions: substrate sodium formate, NAD; 1M additive/buffer pH 7.0; 25° C. for 30 minutes.
Description: as §1
The subject of test [4] is Glutamate dehydrogenase (immobilized enzyme). To be noted: substrate monosodium glutamate, NADP; 1M additive/buffer pH 7.0; 25° C. for 30 minutes.
Description: as §1

Entries after “also recorded” stand apart in the source; their conditions may differ. Read-outs that look alike come from different tables or passages of the source.

In test [1], `Cl.c1c[nH]cn1` [Example 1, imidazole HCl] yielded an OD of 0.4668.

In the case of `C=Cn1ccnc1` [Example 6, 1-Vinylimidazole], the “enzyme activity of immobilized enzyme in the presence of the heterocyclic compound (in words)” value (shortened to “enzyme activity of immobilized enzyme”) in test [2] is listed as “excellent enzyme activity; also recorded: significantly improved enzyme activity”.

Regarding “sodium phosphate buffer [Comparative Example 3, reference compound]”, in test [3], the OD was 0.4134.

Turning to `O=C1NCCN1` [Example 5, 2-Imidazolidinone], the “enzyme activity of immobilized enzyme” value in test [2] is reported as “excellent enzyme activity; also recorded: significantly improved enzyme activity”.

Take `c1cnccn1` [Example 4, Pyrazine]: the “enzyme activity of immobilized enzyme” value in test [2] is recorded as “excellent enzyme activity; also recorded: significantly improved enzyme activity”.

Compound `Cl.c1c[nH]cn1` [Example 3, imidazole HCl] gave an OD in test [3] of 0.5996.

With “sodium phosphate buffer [Comparative Example 1, reference compound]”, the OD in test [1] is listed as 0.1598.

As for “sodium phosphate buffer [reference compound]”, the OD in test [4] is reported as 0.3966.

Regarding `Cl.c1c[nH]cn1` [Example 2, imidazole HCl], in test [4], the OD turned out to be 1.1707.

Turning to `N[C@@H](Cc1c[nH]cn1)C(=O)O` [Example 8, Histidine], in test [2] (0.2M heterocyclic compound, 25° C. for 30 minutes), the OD was 1.1902. The “enzyme activity of immobilized enzyme” value in test [2] is recorded as “excellent enzyme activity”.
